13 compounds from PubChem BioAssay (NCI) can be followed below.

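96-well plates; 48 h exposure; 5 concentrations. Endpoints by linear interpolation between flanking doses. Not reached: highest tested concentration assigned. GI50 marks 50% less growth. TGI: total growth inhibition.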

Test systems include MDA-MB-231 breast; TK-10 renal; SN12C renal; HS 578T breast; KM12 colon; COLO 205 colon; OVCAR-4 ovarian; U251 CNS; 786-0 renal; OVCAR-5 ovarian; CCRF-CEM leukemia.
Experiment in all cases: inhibition of tumour cell growth, NCI panel, 48 h

Take `O=C1CC(=Nc2ccc(Cl)cc2)C(c2ccccc2)N1c1ccccc1` (stereo not drawn): the TGI in the experiment with MDA-MB-231 breast is 85.2 µM; with TK-10 renal it was above 100 µM; in the experiment with SN12C renal, above 100 µM; in the experiment with HS 578T breast, 26.6 µM; with KM12 colon, above 100 µM; in the experiment on COLO 205 colon, 16.4 µM. Also, the TGI in the experiment on OVCAR-4 ovarian, in the experiment with U251 CNS and in the experiment on 786-0 renal was above 100 µM each time.
As for `Nc1nc(N)c2ncn(-c3ccc(Cl)cc3)c2n1`, the TGI in the experiment on MDA-MB-231 breast, in the experiment on TK-10 renal, with SN12C renal, in the experiment with KM12 colon, with COLO 205 colon and in the experiment on OVCAR-5 ovarian was above 100 µM in each case. The TGI in the experiment on OVCAR-4 ovarian is above 100 µM; with U251 CNS, above 100 µM; in the experiment on 786-0 renal, above 100 µM; in the experiment with CCRF-CEM leukemia, 66.1 µM.
As to `CCN(CC)CCNc1nc2ccc([N+](=O)[O-])cc2[n+]([O-])n1`, the TGI was 33.1 µM in the experiment with MDA-MB-231 breast; above 100 µM in the experiment on TK-10 renal; 54.9 µM with SN12C renal; above 100 µM in the experiment with KM12 colon; 18.6 µM in the experiment with COLO 205 colon; 31.7 µM with OVCAR-5 ovarian. Also, the TGI in the experiment with OVCAR-4 ovarian is 26.5 µM; in the experiment with U251 CNS, 77.2 µM; in the experiment on 786-0 renal, above 100 µM; in the experiment on CCRF-CEM leukemia, 85.3 µM.
On to `NC(Cc1ccccc1)C(=O)N[C@H]1c2ccsc2/C(=N/O)[C@H]1O` (stereo partly drawn), for which the TGI in the experiment on MDA-MB-231 breast, with TK-10 renal, with SN12C renal, in the experiment with COLO 205 colon, in the experiment on OVCAR-5 ovarian and in the experiment with OVCAR-4 ovarian was above 100 µM in each case. The TGI in the experiment on U251 CNS and in the experiment on CCRF-CEM leukemia was above 100 µM each time.
Take `O=c1[nH]nc(-c2ccccc2)c2[nH]c3c4ccccc4ccc3c12`: the TGI was above 100 µM with SN12C renal; above 100 µM in the experiment with KM12 colon; above 100 µM in the experiment with COLO 205 colon; above 100 µM with U251 CNS; 48.1 µM in the experiment with 786-0 renal; above 100 µM in the experiment on CCRF-CEM leukemia.
Turning to `CC1OC(OC2C(O[C@H]3CC[C@@]4(C)C(=CC[C@H]5[C@@H]6C[C@@H]7O[C@]8(CC[C@@H](CO)CO8)[C@@H](C)[C@@H]7[C@@]6(C)CC[C@@H]54)C3)OC(CO)C(O)C2OC2OC(CO)C(O)C(O)C2O)C(O)C(O)C1O` (stereo partly drawn), the TGI stood at 3.25 µM in the experiment with MDA-MB-231 breast; 3.08 µM with TK-10 renal; 3.21 µM in the experiment on SN12C renal; 8.06 µM in the experiment on HS 578T breast; 3.57 µM with KM12 colon; 3.42 µM with COLO 205 colon. The TGI in the experiment with OVCAR-5 ovarian is 4.08 µM; with OVCAR-4 ovarian, 3.69 µM; in the experiment with U251 CNS, 3.22 µM; in the experiment on 786-0 renal, 3.3 µM.
With `CCOC(=O)c1nc2ccc(C(F)(F)F)cc2nc1NCc1cc(OC)c(OC)c(OC)c1`, the TGI with MDA-MB-231 breast was above 100 µM; in the experiment with TK-10 renal it was above 100 µM; in the experiment on SN12C renal, above 100 µM; in the experiment with HS 578T breast it was above 100 µM; in the experiment with KM12 colon, above 100 µM; with COLO 205 colon, 73.4 µM. In addition, the TGI with OVCAR-5 ovarian and in the experiment on 786-0 renal was above 100 µM in each case.
Take `O=C1CCC(c2ccc(Cl)cc2)=NN1c1nsc2ccccc12`: the TGI was above 100 µM in the experiment with TK-10 renal; 67.3 µM in the experiment with SN12C renal; above 100 µM with KM12 colon; above 100 µM in the experiment with COLO 205 colon; above 100 µM with OVCAR-5 ovarian; above 100 µM with OVCAR-4 ovarian. For the same compound, the TGI was above 100 µM in the experiment with U251 CNS and 80 µM in the experiment on CCRF-CEM leukemia.
For `NC(N)=N/N=C/c1c[nH]c2ccccc12`, the TGI in the experiment on TK-10 renal, in the experiment on SN12C renal, in the experiment with KM12 colon, in the experiment with COLO 205 colon, with OVCAR-5 ovarian and in the experiment with OVCAR-4 ovarian was above 100 µM in each case. The TGI in the experiment on U251 CNS, in the experiment with 786-0 renal and in the experiment on CCRF-CEM leukemia was above 100 µM each time.
With `O=C(N/N=C/c1ccccc1)c1c(-c2cccnc2)cnc2ccccc12`, the TGI in the experiment with TK-10 renal, in the experiment with SN12C renal, in the experiment with KM12 colon, with COLO 205 colon, in the experiment with OVCAR-5 ovarian and in the experiment on OVCAR-4 ovarian was above 100 µM each time. The TGI with U251 CNS, with 786-0 renal and with CCRF-CEM leukemia was above 100 µM in each case.
Turning to `NN/C(=N\S(=O)(=O)c1cc2ccccc2s1)Nc1ccc(Cl)cc1`, the TGI with MDA-MB-231 breast amounted to 40.4 µM; with TK-10 renal, 51.2 µM; in the experiment on SN12C renal, 39 µM; in the experiment on KM12 colon, 48.1 µM; in the experiment on COLO 205 colon, 33 µM; in the experiment on OVCAR-5 ovarian, 48.2 µM. Moreover, the TGI in the experiment with OVCAR-4 ovarian came to 38.5 µM; with U251 CNS, 34.5 µM; with 786-0 renal, 35.4 µM.
Regarding `CCOC(=O)c1cc(C(O)P2(=O)N(CC(C)(C)C)[C@@H]3CCCC[C@H]3N2CC(C)(C)C)cn1C(=O)OC(C)(C)C` (stereo partly drawn), the TGI is 31.4 µM in the experiment with MDA-MB-231 breast; 57.3 µM in the experiment with TK-10 renal; 27.5 µM with SN12C renal; 36.1 µM in the experiment on HS 578T breast; 29.2 µM with KM12 colon; 31.4 µM in the experiment on COLO 205 colon. In addition, the TGI was 41.6 µM in the experiment on OVCAR-5 ovarian, 77.7 µM in the experiment on OVCAR-4 ovarian, 29.4 µM in the experiment with U251 CNS and 31 µM in the experiment on 786-0 renal.
`CNc1ccc(C(=O)CC(O)CCC(C)C2OC(=O)CC(O)CC(=O)CC(O)CC(O)CC(O)CC(O)CC3(O)CC(O)C(C(=O)OC)C(CC(O[C@@H]4O[C@H](C)[C@@H](O)[C@H](N)[C@@H]4O)/C=C/C=C/C=C/C=C/C=C/C=C/C=C/C2C)O3)cc1` (stereo partly drawn): the GI50 was 2880 nM in the experiment on MDA-MB-231 breast; 1460 nM in the experiment with SN12C renal; 3.9 µM in the experiment on KM12 colon; 2690 nM with COLO 205 colon; 3.7 µM with OVCAR-5 ovarian; 3.87 µM in the experiment with U251 CNS. The TGI in the experiment with MDA-MB-231 breast was above 100 µM; in the experiment with SN12C renal, 2.99 µM; in the experiment with KM12 colon, 12.4 µM; with COLO 205 colon, 6.6 µM; in the experiment on OVCAR-5 ovarian, above 100 µM; with U251 CNS, 56.4 µM.
